Laboratory results reported in PubChem BioAssay AID1963423 (Molecular Pharmacology Branch, DTP, NCI, 2024).

Tested on: 439559-082-T-J2-PDC complex spheroid growth
Test: Anticancer human tumor 439559-082-T-J2-PDC patient-derived colon adenocarcinoma cell line growth inhibition [Asc]
Conditions: for IC50: curve of first compound; for viability, T/C: stronger effect = lower value
How it was run: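 Tumor cells were grown as multicellular spheroids with stromal HUVEC and mesenchymal stem cells and treated singly or in combination. Concentrations fell in half-log steps from the clinical Cmax, or from 10 microM where none was known.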

[1] = second compound 0.03 µM, first compound 0.0316 µM
[2] = second compound 0.03 µM, first compound 0.1 µM
[3] = second compound 0.03 µM, first compound 0.316 µM
[4] = second compound 0.03 µM, first compound 1 µM
[5] = second compound 0.03 µM, first compound 3.16 µM
[6] = second compound 0.03 µM, first compound 10 µM
[7] = second compound 0.0949 µM, first compound 0.0316 µM
[8] = second compound 0.0949 µM, first compound 0.1 µM
[9] = second compound 0.0949 µM, first compound 0.316 µM
[10] = second compound 0.0949 µM, first compound 1 µM
[11] = second compound 0.0949 µM, first compound 3.16 µM
[12] = second compound 0.0949 µM, first compound 10 µM
[13] = second compound 0.3 µM, first compound 0.0316 µM
[14] = second compound 0.3 µM, first compound 0.1 µM
[15] = second compound 0.3 µM, first compound 0.316 µM
[16] = second compound 0.3 µM, first compound 1 µM
[17] = second compound 0.3 µM, first compound 3.16 µM
[18] = second compound 0.3 µM, first compound 10 µM
[19] = second compound 0.949 µM, first compound 0.0316 µM
[20] = second compound 0.949 µM, first compound 0.1 µM
[21] = second compound 0.949 µM, first compound 0.316 µM
[22] = second compound 0.949 µM, first compound 1 µM
[23] = second compound 0.949 µM, first compound 3.16 µM
[24] = second compound 0.949 µM, first compound 10 µM
[25] = second compound 3 µM, first compound 0.0316 µM
[26] = second compound 3 µM, first compound 0.1 µM
[27] = second compound 3 µM, first compound 0.316 µM
[28] = second compound 3 µM, first compound 1 µM
[29] = second compound 3 µM, first compound 3.16 µM
[30] = second compound 3 µM, first compound 10 µM
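Note: spheroids exposed to agents for 7 days starting day 3 after seeding.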
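Throughout, for viability, T/C: percent of DMSO vehicle control viability with 100% = vehicle.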

| SMILES | IC50 (second compound 0.03 µM) | IC50 (second compound 0.0949 µM) | IC50 (second compound 0.3 µM) | IC50 (second compound 0.949 µM) | IC50 (second compound 3 µM) | viability, T/C [1] | viability, T/C [2] | viability, T/C [3] | viability, T/C [4] | viability, T/C [7] | viability, T/C [8] | viability, T/C [9] | viability, T/C [10] | viability, T/C [13] | viability, T/C [14] | viability, T/C [15] | viability, T/C [16] | viability, T/C [19] | viability, T/C [20] | viability, T/C [21] | other results |
| --- | --- | --- | --- | --- | --- | --- | --- | --- | --- | --- | --- | --- | --- | --- | --- | --- | --- | --- | --- | --- | --- |
| C#Cc1c(F)ccc2cc(O)cc(-c3ncc4c(N5CC6CCC(C5)N6)nc(OCC56CCCN5CC(F)C6)nc4c3F)c12 (stereo not given) + CCN1C(C(=O)NC23CCC(C(=O)O)(CC2)CC3)C(c2cccc(Cl)c2F)C2(C(=O)Nc3cc(Cl)ccc32)C12CCCCC2 | 1.16 µM | 2.2 µM | 1.63 µM | 2.19 µM | 0.593 µM | 88% | 81.7% | 64% | 50% | 88.8% | 84.8% | 74.5% | 55.2% | 88.5% | 83.5% | 73.4% | 51.2% | 103% | 80.8% | 72.8% | viability, T/C [5]: 48.4%; viability, T/C [6]: 40%; viability, T/C [11]: 49.7%; viability, T/C [12]: 36.2%; viability, T/C [17]: 49.3%; viability, T/C [18]: 39.3%; viability, T/C [22]: 55.7%; viability, T/C [23]: 48.2%; viability, T/C [24]: 36.9%; viability, T/C [25]: 73.6%; viability, T/C [26]: 74.3%; viability, T/C [27]: 56.6%; viability, T/C [28]: 45.2%; viability, T/C [29]: 44.9%; viability, T/C [30]: 37.8% |
| C=C(F)C(=O)N1CCN(c2nc(OCC3CCCN3C)nc3c2CCN(c2cccc4cccc(Cl)c24)C3)CC1CC#N (stereo not given) + CCN1C(C(=O)NC23CCC(C(=O)O)(CC2)CC3)C(c2cccc(Cl)c2F)C2(C(=O)Nc3cc(Cl)ccc32)C12CCCCC2 | 6.63 µM | 5.8 µM | 6.3 µM | 6.35 µM | 5.12 µM | 102% | 96.2% | 116% | 93% | 109% | 112% | 107% | 96.7% | 92% | 113% | 103% | 90.5% | 104% | 103% | 105% | viability, T/C [5]: 92.1%; viability, T/C [6]: 27%; viability, T/C [11]: 82.8%; viability, T/C [12]: 22.3%; viability, T/C [17]: 85%; viability, T/C [18]: 27.5%; viability, T/C [22]: 98.2%; viability, T/C [23]: 85.7%; viability, T/C [24]: 26.7%; viability, T/C [25]: 88.3%; viability, T/C [26]: 102%; viability, T/C [27]: 96.3%; viability, T/C [28]: 84.5%; viability, T/C [29]: 80.2%; viability, T/C [30]: 10.2% |
| C=CC(=O)N1CCN(c2nc(=O)n(-c3c(C)ccnc3C(C)C)c3nc(-c4c(O)cccc4F)c(F)cc23)C(C)C1 (stereo not given) + CCN1C(C(=O)NC23CCC(C(=O)O)(CC2)CC3)C(c2cccc(Cl)c2F)C2(C(=O)Nc3cc(Cl)ccc32)C12CCCCC2 | > 10 µM | > 10 µM | > 10 µM | > 10 µM | > 10 µM | 108% | 106% | 108% | 96.5% | 103% | 106% | 110% | 93.2% | 103% | 103% | 110% | 89.7% | 102% | 110% | 117% | viability, T/C [5]: 107%; viability, T/C [6]: 98.6%; viability, T/C [11]: 101%; viability, T/C [12]: 103%; viability, T/C [17]: 100%; viability, T/C [18]: 109%; viability, T/C [22]: 93.8%; viability, T/C [23]: 99%; viability, T/C [24]: 104%; viability, T/C [25]: 94.7%; viability, T/C [26]: 94.6%; viability, T/C [27]: 107%; viability, T/C [28]: 85.7%; viability, T/C [29]: 90%; viability, T/C [30]: 91.8% |
| CNC(C)C(=O)NC1CN(S(=O)(=O)c2cccc(S(=O)(=O)N3CCC4CCC(C(=O)NC(c5ccccc5)c5ccccc5)N4C(=O)C(NC(=O)C(C)NC)C3)c2)CCC2CCC(C(=O)NC(c3ccccc3)c3ccccc3)N2C1=O (stereo not given) + CCN1C(C(=O)NC23CCC(C(=O)O)(CC2)CC3)C(c2cccc(Cl)c2F)C2(C(=O)Nc3cc(Cl)ccc32)C12CCCCC2 | > 1 µM | > 1 µM | > 1 µM | > 1 µM | > 1 µM | 109% | 95.5% | 102% | 88% | 106% | 96.8% | 93% | 84.6% | 113% | 94.8% | 84.7% | 82.5% | 126% | 101% | 92.8% | viability, T/C (second compound 0.03 µM, first compound 0.00316 µM): 104%; viability, T/C (second compound 0.03 µM, first compound 0.01 µM): 110%; viability, T/C (second compound 0.0949 µM, first compound 0.00316 µM): 109%; viability, T/C (second compound 0.0949 µM, first compound 0.01 µM): 110%; viability, T/C (second compound 0.3 µM, first compound 0.00316 µM): 109%; viability, T/C (second compound 0.3 µM, first compound 0.01 µM): 105%; viability, T/C (second compound 0.949 µM, first compound 0.00316 µM): 103%; viability, T/C (second compound 0.949 µM, first compound 0.01 µM): 113%; viability, T/C [22]: 91.5%; viability, T/C (second compound 3 µM, first compound 0.00316 µM): 99.1%; viability, T/C (second compound 3 µM, first compound 0.01 µM): 102%; viability, T/C [25]: 109%; viability, T/C [26]: 93.1%; viability, T/C [27]: 75%; viability, T/C [28]: 77.7% |
